The SangsterLogP compilation

Assay: method code SF, from Recanatgini, M.; Leoni, A.; Baraldi, G. (1991). Partition coefficients of 3-methyl-4-nitropyrazole-5-carboxamides. 16, 127-130.
Details: not given
`Cc1ccc(NC(=O)c2[nH]nc(C)c2[N+](=O)[O-])cc1` gave a logP of 2.34.

Same assay, conditions: pH 1.0
`Cc1n[nH]c(C(=O)N2CCCCCC2)c1[N+](=O)[O-]` gave a logD of 1.15. Compound `CCCCNC(=O)c1[nH]nc(C)c1[N+](=O)[O-]` has a logD of 1.27. For `Cc1n[nH]c(C(=O)N(C)C2CCCCC2)c1[N+](=O)[O-]`, the logD was 1.68. `Cc1n[nH]c(C(=O)NC23CC4CC(CC(C4)C2)C3)c1[N+](=O)[O-]` showed a logD of 2.83. With `CCCCCCNC(=O)c1[nH]nc(C)c1[N+](=O)[O-]` the logD was 2.46. `Cc1n[nH]c(C(=O)NCCc2ccccc2)c1[N+](=O)[O-]` gave a logD of 1.82. In the case of `CCCCCCCCNC(=O)c1[nH]nc(C)c1[N+](=O)[O-]`, the logD is reported as 3.48. For `CNC(=O)c1n[nH]c(C)c1[N+](=O)[O-]`, the logD was -0.23. For `CCNC(=O)c1n[nH]c(C)c1[N+](=O)[O-]`, the logD was 0.13. Work on `Cc1n[nH]c(C(N)=O)c1[N+](=O)[O-]` yielded a logD of -0.38. With `Cc1n[nH]c(C(=O)NCc2ccccc2)c1[N+](=O)[O-]` the logD was 1.49. `Cc1n[nH]c(C(=O)NC2CCCC2)c1[N+](=O)[O-]` gave a logD of 1.24. `Cc1n[nH]c(C(=O)N2CCCC2)c1[N+](=O)[O-]` showed a logD of 0.25. `Cc1[nH]nc(C(=O)N2CCCCC2)c1[N+](=O)[O-]` gave a logD of 0.79. Work on `CCCCCCCCCCNC(=O)c1[nH]nc(C)c1[N+](=O)[O-]` yielded a logD of 4.48. In the case of `Cc1n[nH]c(C(=O)NC2CCCCC2)c1[N+](=O)[O-]`, the logD is reported as 1.71. Compound `CCCNC(=O)c1[nH]nc(C)c1[N+](=O)[O-]` has a logD of 0.65. `Cc1[nH]nc(C(=O)NC2CC2)c1[N+](=O)[O-]` showed a logD of 0.25. Compound `Cc1n[nH]c(C(=O)Nc2ccccc2)c1[N+](=O)[O-]` has a logD of 1.81. `Cc1n[nH]c(C(=O)N(C)Cc2ccccc2)c1[N+](=O)[O-]` showed a logD of 1.65.
